# Like-named read-outs stand apart in the source and are kept apart here.
# How the values were obtained:
# HUVEC [1] = assay: HUVEC cell proliferation assay; settings: for IC30 of HUVEC proliferation / IC70 of HUVEC proliferation: single treatment
# Protocol: HUVEC were plated at 10,000 cells/well onto 24-well culture plates in EBM-2 supplemented with 5% FBS and incubated for 24 hours (37° C.; 5% CO2). Medium was replaced with 2.5% endothelial cell basal medium-2 (EBM-2) supplemented with 1% Endothelial cell growth supplement (ECGS). Human osteosarcoma Saos-2 or MG-63-Ras cells were plated at 2500 cells/well in DMEM supplemented with 5 FBS and incubated for 24 hours (37° C.; 5% CO2). The medium was then replaced with DMEM supplemented with 10% FBS. Cells were exposed to ALN, TNP-470, and HPMA copolymer-ALN-TNP-470 conjugate or with equivalent concentrations of combinations of free ALN and TNP-470 at serial dilutions. HUVEC were also incubated with or without 1 μM of cathepsin-K inhibitor III. Control cells were grown in the presence or absence of growth factors. HUVEC or Saos-2 viable cells were counted by a Z1 Coulter® Particle Counter (Beckman Coulter™) or by XTT reagent respectively after 72 hours of incubation.
# IC50 represents the concentration of a drug that is required for 50% inhibition in vitro. The IC30, 50, 70 values of treatment with ALN, TNP-470 and their respective combinations from HUVEC proliferation assay were collected. IC30, 50, 70 values of TNP-470 and ALN were marked on X, Y axis respectively and a line which represents additive effect was drawn between each inhibitory concentration (IC). The combination index (CI) of each treatment was calculated according to the classic isobologram equation CI=[(D)1/(Dx)1]+[(D)2/(Dx)2] as previously described [Chou T. C. Pharmocol Rev 2006; 58:621-681]. Area on the right side of each IC additive line represents antagonist effect while the left side represents synergic effect.
# [2] = test system: Saos-2 human osteosarcoma cells; assay: Saos-2 cell proliferation assay; assay type: cell-based
# Protocol: (§1) Human osteosarcoma Saos-2 or MG-63-Ras cells were plated at 2500 cells/well in DMEM supplemented with 5 FBS and incubated for 24 hours (37° C.; 5% CO2). The medium was then replaced with DMEM supplemented with 10% FBS. Cells were exposed to ALN, TNP-470, and HPMA copolymer-ALN-TNP-470 conjugate or with equivalent concentrations of combinations of free ALN and TNP-470 at serial dilutions. […] Control cells were grown in the presence or absence of growth factors. HUVEC or Saos-2 viable cells were counted by a Z1 Coulter® Particle Counter (Beckman Coulter™) or by XTT reagent respectively after 72 hours of incubation.
# HUVEC [3] = assay: HUVEC migration assay towards VEGF; assay type: cell-based, human
# Protocol: Cell migration assays were performed using modified 8 μm Boyden chambers coated with 10 μg/ml fibronectin. […] Following incubation, cells were allowed to migrate to the underside of the chamber for 4 hours in the presence or absence of Vascular endothelial growth factor (VEGF) (20 ng/ml) in the lower chamber. Cells were then fixed with ice-cold […] and stained using Hema 3 Stain System. The stained migrated cells were imaged using Nikon TE2000E inverted microscope integrated with Nikon DS5 cooled CCD camera by 10× objective, brightfield illumination. Migrated cells from the captured images per membrane were counted using NIH image software. Migration was normalized to percent migration, with 100% representing VEGF dependent migration of cells which were not incubated with free or HPMA-conjugated ALN and TNP-470.
# [4] = test system: MG-63-Ras human osteosarcoma cells; assay: MG-63-Ras cell proliferation assay; assay type: cell-based
# Protocol: as §1
# [5] = Hydroxyapatite binding assay; settings: PBS pH 7.4
# Protocol: In order to assess the ability of HPMA copolymer-ALN-TNP-470 conjugate to bind to bone mineral, its binding potency to hydroxyapatite (HA) was evaluated. HPMA copolymer-ALN-TNP-470 conjugate was dissolved in phosphate buffered saline (PBS), pH 7.4 (1 mg/ml). The conjugate solution (500 μl) was incubated with hydroxyapatite powder (15 mg), in 500 μl PBS, pH 7.4. HPMA copolymer-Gly-Phe-Leu-Gly was used as control. Incubated samples were centrifuged at 6000 RPM for 3 minutes and a sample from the upper layer (100 μl) was collected at selected time points. FPLC analysis using HighTrap desalting column (Amersham®) was used for detection of unbound conjugate in the samples (FPLC conditions: AKTA™ Purifier®, mobile phase 100% DDW, 2 ml/minute, 215 nm). Hydroxyapatite binding kinetic analysis of the conjugate was performed using the Unicorn® AKTA™ software. Areas under the curve (AUC) were calculated from chromatographs at each time point. AUC of each hydroxyapatite incubated conjugate chromatogram was normalized to percent AUC of conjugate sample in the absence of hydroxyapatite used as control.
# HUVEC [6] = assay: Capillary-like tube formation assay; assay type: cell-based, human
# Protocol: The surface of 24-well plates was coated with Matrigel® basement membrane (50 μl/well; 10 mg/ml) on ice and was allowed to polymerize at 37° C. for 30 minutes. […] After 8 hours of incubation (37° C.; 5% CO2), wells were imaged using Nikon TE2000E inverted microscope integrated with Nikon DS5 cooled CCD camera by 4× objective, brightfield illumination. […]
# [7] = test system: VEGF-induced extravasation of Evans blue dye; assay: Miles vascular permeability assay; assay type: in vivo, Balb/c mice; settings: 30 mg/kg TNP-470 equivalents s.c., assay three days later
# Protocol: Balb/c male mice were injected subcutaneously (s.c.) with TNP-470, HPMA copolymer-ALN-TNP-470 conjugate (30 mg/kg TNP-470 equivalents) or saline (n=5 mice/group). Three days later, a modified Miles assay was performed as previously described [Claffey et al. 1996, Cancer Res 56: 172-181; Miles & Miles 1952, J Physiol 118:228-257]. Briefly, Evans blue dye (100 μl of a 1% solution in 0.9% NaCl) was injected into the retro-orbital plexus of the mice. Ten minutes later, 50 μl of human VEGF165 (1 ng/μl) or PBS were injected intradermally into the pre-shaved back skin. Twenty minutes later, the animals were killed, and an area of skin that included the entire injection site was removed. Evans blue dye was extracted from the skin by incubation with formamide for 5 days at room temperature, and the absorbance of the extracted dye was measured at 620 nm. Data is expressed as mean±standard error of the mean (s.e.m.).
# [8] = test system: mCherry-labeled MG-63-Ras human osteosarcoma; assay: Antitumor activity on MG-63-Ras human osteosarcoma in mice; assay type: in vivo, SCID mice; settings: day 19, 30 mg/kg q.o.d. 3 times s.c.
# Protocol: SCID male were inoculated s.c. with 5×10^5 mCherry-labeled MG-63-Ras human osteosarcoma. Mice bearing 70 mm^3 tumors were injected s.c. with combination of free ALN and TNP-470 (1:1, 30 mg/kg), FITC-labeled HPMA copolymer-ALN-TNP-470 conjugate (30 mg/kg q.o.d.×3 times TNP-470-equivalent dose) or saline (n=5 mice/group). Therapy was initiated at a relatively early state (70 mm^3) in order to imitate a metastatic scenario as well as an early primary osteosarcoma. Tumor progression was monitored by caliper measurement (width×length^2×0.52) and by CRI™ Maestro non-invasive intravital imaging system. At termination, tumors were dissected, weighed and analyzed. Data is expressed as mean±standard error of the mean (s.e.m.).
# CRI Maestro™ non-invasive fluorescence imaging system was used to follow tumor progression of mice bearing mCherry-labeled MG-63-Ras human osteosarcoma tumors and for biodistribution studies of FITC-labeled HPMA copolymer-ALN-TNP-470 conjugate. Mice were maintained on a non-fluorescent diet (Harlan) for the whole period of the experiment. Mice were anesthetized using ketamine (100 mg/kg) and xylazine (12 mg/kg), treated with a depilatory cream (Veet®) and placed inside the imaging system. Alternatively, selected organs from mice were dissected and placed inside the imaging system. […]
# [9] = test system: MG-63-Ras human osteosarcoma tumors; assay: Immunohistochemistry of tumors (H & E, CD34 microvessel density); assay type: in vivo, mice
# Protocol: Immunohistochemistry of tumor nodules was performed using 5 μm thick formalin-fixed, paraffin-embedded tissue sections. Paraffin sections were de-paraffinized, rehydrated, and stained by hematoxylin and eosin (H & E). For CD34 staining (an endothelial cell marker), slides were deparaffinized and pre-treated with 10 mM citrate, pH 6.0 for 50 min in a steam pressure cooker (Decloaking Chamber, BioCare Medical, Walnut Creek, Calif.). All further steps were performed at room temperature in a hydrated chamber. Slides were covered with Peroxidase Block (Merck, Germany) for 5 minutes to quench endogenous peroxidase activity, followed by incubation with 10% of rabbit serum in 50 mM Tris-HCl, pH 7.4, for 30 min to block non-specific binding sites. Primary rat anti-murine CD34 antibody (MEC 14.7 1:50 dilution; Abcam, Cambridge, Mass.) was applied in 1% rabbit serum in Tris-HCl, pH 7.4 at room temperature for 1 hour. Slides were washed in 50 mM TrisHCl, pH 7.4 and rabbit anti-rat antibody (1:750 dilution; Vector Laboratories, CA, USA) was applied for 30 minutes, followed by anti-rabbit horseradish peroxidase-conjugated antibody (ABC detection kit, Vector Laboratories, CA, USA). Following further washing, immunoperoxidase staining was developed using a ImmPACT™ DAB diluent kit (Vector Laboratories, CA, USA) per the manufacturer instructions and counterstained with methyl green. Microvessel density (MVD) was calculated as previously described [Weidner et al. 1991, N Engl J Med 324:1-8].
# [10] = Homo sapiens, HUVEC, read-out: IC50 of HUVEC proliferation
# [11] = equivalent concentration 0.1 nM
compound,measurement,setting,value
"NCCCC(O)(P(=O)(O)O)P(=O)(O)O [ALN, (4-amino-1-hydroxybutylidene)bisphosphonic acid]",Dose dependence of inhibition of ECGS-induced HUVEC proliferation,HUVEC [1],inhibited at a dose dependent manner
same,IC50,HUVEC [1]; [10],50 µM
same,IC30 of HUVEC proliferation,HUVEC [1],10 µM
same,IC70 of HUVEC proliferation,HUVEC [1],90 µM
same,Dose dependence of inhibition of Saos-2 proliferation,[2],inhibited at a dose dependent manner
CO[C@@H]1[C@H](OC(=O)NC(=O)CCl)CC[C@]2(CO2)[C@H]1[C@@]1(C)O[C@@H]1CC=C(C)C [TNP-470],"Inhibition of HUVEC proliferation, free vs conjugated TNP-470",HUVEC [1],inhibited similarly
same,IC50,HUVEC [1]; [10],0.0001 µM
same,IC30 of HUVEC proliferation,HUVEC [1],2.5e-07 µM
same,IC70 of HUVEC proliferation,HUVEC [1],1 µM
same,Inhibition of chemotactic migration response to VEGF,"HUVEC [3]; equivalent concentrations of 0.1, 1 and 10 nM",dramatically inhibited
HPMA-Gly-Gly-Pro-Nle-ALN-TNP-470 [HPMA copolymer-ALN-TNP-470 conjugate],Cytotoxic effect on HUVEC at doses higher than,HUVEC [1]; ALN and TNP-470 equivalent concentrations,> 10 nM
same,Concentrations inhibiting HUVEC proliferation in the presence of cathepsin K inhibitor III,"HUVEC [1]; ALN-equivalent concentrations, 72 hours",higher than 4 μM
same,Shift of concentration inhibiting HUVEC proliferation in presence vs absence of cathepsin K inhibitor III,HUVEC [1]; higher concentration in presence of inhibitor,4 logs
same,IC50,"HUVEC [1]; read-out: IC50 of ECGS-induced HUVEC proliferation, ALN and TNP-470 equivalent concentrations, 72 hours",0.001 µM
same,IC50,"HUVEC [1]; read-out: IC50 of HUVEC proliferation in the presence of cathepsin K inhibitor III, 1 μM cathepsin K inhibitor III",4.2 µM
same,IC50,[2],30 µM
same,IC50,[4],10 µM
same,Conjugate bound to hydroxyapatite,[5]; 2 minutes of incubation,50%
same,Conjugate bound to hydroxyapatite,[5]; plateau after 175 minutes of incubation,92%
same,Inhibition of chemotactic migration response to VEGF,HUVEC [3]; [11],18%
same,Inhibition of chemotactic migration response to VEGF,HUVEC [3]; equivalent concentration 1 nM,35%
same,Inhibition of chemotactic migration response to VEGF,HUVEC [3]; equivalent concentration 10 nM,61%
same,Inhibition of capillary-like tube length vs untreated control,HUVEC [6]; equivalent concentration 0.01 nM,29%
same,Inhibition of capillary-like tube length vs untreated control,HUVEC [6]; [11],54%
same,Inhibition of capillary-like tube length vs untreated control,HUVEC [6]; equivalent concentration 1 nM,64%
same,Inhibition of VEGF-induced extravasation of Evans blue dye vs vehicle,[7],92%
same,Tumor growth inhibition,[8],96%
same,Microvessel density (MVD),[9]; CD34 staining,32±9 microvessels/mm^2
same,Reduction in microvessel density (MVD) vs control,[9]; CD34 staining,74%
same,Tumor histology (H & E),"[9]; mouse, in vivo",almost regressed

# From patent US8703114B2, “Conjugate of a polymer, an anti-angiogenesis agent and a targeting moiety, and uses thereof in the treatment of bone related angiogenesis conditions” (priority 2008, dated 2014)
